Patent US9133207B2, “Tetrandrine derivatives with substituted 5-carbon, preparation method and use thereof” (Hangzhou Bensheng Pharmaceutical Co., Ltd., priority 2011, dated 2015)
In brackets after ≈: the same amount, converted by molar mass.

Tests used:
[1] = test system: RPMI8226 (multiple myeloma); assay: Multiple myeloma cell growth inhibition, MTT, 72 h (Example 6); format: cell-based, human; settings: Homo sapiens, RPMI-8226; 72 h, MTT, RPMI8226
Method in brief: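 Viability was read by MTT after 72 h of compound exposure at 37 °C, 5% CO2. Each well held 6000 RPMI8226 cells in 1640 medium containing 10% fetal bovine serum, with derivatives added at various concentrations.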

MG63 (osteosarcoma) = assay: Solid tumor cell growth inhibition, MTT, 72 h (Example 7); format: cell-based, human; settings: Homo sapiens; 72 h, MTT, MG-63
Method in brief: (§1)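 4000 cells/well; DMEM high glucose + 10% FBS; 37 °C, 5% CO2; 24 h pre-culture; tetrandrine derivatives, varied conc., 72 h; MTT readout; viability % vs untreated control = 100%.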

[2] = test system: PANC-1 (pancreatic cancer); assay: as above; format: cell-based, human; settings: Homo sapiens; 72 h, MTT, PANC-1
Method in brief: as §1

[3] = test system: CaES-17 (esophageal cancer cell); assay: as above; format: cell-based, human; settings: Homo sapiens, CaEs17; 72 h, MTT, CAES-17
Method in brief: as §1

PC-3 (prostate cancer) = assay: as above; format: cell-based, human; settings: for IC50 / IC90: Homo sapiens, 72 h, MTT, PC-3
Method in brief: as §1

[4] = test system: NB4 (acute promyelocytic leukemia, AML); assay: Leukemia cell growth inhibition, MTT, 72 h (Example 5); format: cell-based, human; settings: Homo sapiens; 72 h, MTT
Method in brief: (§2)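 An MTT read-out of viable cell concentration follows 72 h incubation (37° C, 5% CO2) of 6000 cells/well in 10% FBS-supplemented 1640 medium with the 5-substituted derivatives at varying concentrations.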

[5] = test system: Jurkat (acute lymphoblastic leukemia, ALL); assay: as above; format: cell-based, human; settings: Homo sapiens, Jurkat; 72 h, MTT
Method in brief: as §2

[6] = test system: Kasumi-1 (acute myeloid leukemia M2 type, AML-M2); assay: as above; format: cell-based, human; settings: Homo sapiens, Kasumi 1
Method in brief: as §2

[7] = test system: K562/adr (drug-resistant, chronic myeloid leukemia, CML); assay: as above; format: cell-based, human; settings: Homo sapiens, K562/Adr; 72 h, MTT
Method in brief: as §2

[8] = test system: H9 (acute lymphoblastic leukemia, ALL); assay: as above; format: cell-based, human; settings: Homo sapiens; 72 h, MTT
Method in brief: as §2

[9] = test system: RKO (human colon adenocarcinoma cell); assay: Solid tumor cell growth inhibition, MTT, 72 h (Example 7); format: cell-based; settings: Homo sapiens; 72 h, MTT, RKO
Method in brief: as §1

[10] = test system: Huh7 (human liver cancer cell); assay: as above; format: cell-based; settings: Homo sapiens; 72 h, MTT, Huh-7
Method in brief: as §1

[11] = test system: Becap37 (human breast cancer cell); assay: as above; format: cell-based; settings: Homo sapiens; 72 h, MTT, Becap-37
Method in brief: as §1

[12] = test system: MGC 803 (human gastric cancer cell); assay: as above; format: cell-based; settings: Homo sapiens
Method in brief: as §1

A549 (human lung cancer) = assay: as above; format: cell-based; settings: for IC50 / IC90: Homo sapiens, 72 h, MTT, A549
Method in brief: as §1

| SMILES | IC50 [1] [µg/mL] | IC90 [1] [µg/mL] | IC50 (MG63 (osteosarcoma)) [µg/mL] | IC90 (MG63 (osteosarcoma)) [µg/mL] | IC50 [2] [µg/mL] | IC90 [2] [µg/mL] | IC50 [3] [µg/mL] | IC90 [3] [µg/mL] | IC50 (PC-3 (prostate cancer)) [µg/mL] | IC90 (PC-3 (prostate cancer)) [µg/mL] | IC50 [4] [µg/mL] | IC90 [4] [µg/mL] | IC50 [5] [µg/mL] | IC90 [5] [µg/mL] | IC50 [6] [µg/mL] | IC90 [6] [µg/mL] | IC50 [7] [µg/mL] | IC90 [7] [µg/mL] | IC50 [8] [µg/mL] | IC90 [8] [µg/mL] | other results |
| --- | --- | --- | --- | --- | --- | --- | --- | --- | --- | --- | --- | --- | --- | --- | --- | --- | --- | --- | --- | --- | --- |
| COc1ccc2cc1Oc1ccc(cc1)C[C@H]1c3cc(c(OC)cc3CCN1C)Oc1c(OC)c(OC)c(CNC(C)C)c3c1[C@H](C2)N(C)CC3 [BS-TE-311] | 0.18 (≈ 0.259 µM) | 1.74 (≈ 2.51 µM) | 1.89 (≈ 2.72 µM) | 4 (≈ 5.76 µM) | 6.31 (≈ 9.09 µM) | 13.2 (≈ 19 µM) | 4.05 (≈ 5.84 µM) | 25.6 (≈ 36.9 µM) | 6.04 (≈ 8.7 µM) | 8 (≈ 11.5 µM) | 0.83 (≈ 1.2 µM) | 4 (≈ 5.76 µM) | 3.15 (≈ 4.54 µM) | 9.19 (≈ 13.2 µM) | 1.33 (≈ 1.92 µM) | 5.63 (≈ 8.11 µM) | 1.97 (≈ 2.84 µM) | 12 (≈ 17.3 µM) | 2.29 (≈ 3.3 µM) | 3.99 (≈ 5.75 µM) | IC50 [9]: 1.96 µg/mL (≈ 2.82 µM); IC90 [9]: 4.25 µg/mL (≈ 6.12 µM); IC50 [10]: 3.5 µg/mL (≈ 5.04 µM); IC90 [10]: 4.9 µg/mL (≈ 7.06 µM); IC50 [11]: 2.5 µg/mL (≈ 3.6 µM); IC90 [11]: 7.86 µg/mL (≈ 11.3 µM); IC50 [12]: 3.17 µg/mL (≈ 4.57 µM); IC90 [12]: 11.8 µg/mL (≈ 17 µM); IC50 (A549 (human lung cancer)): 1.89 µg/mL (≈ 2.72 µM); IC90 (A549 (human lung cancer)): 9.07 µg/mL (≈ 13.1 µM) |
| COc1ccc2cc1Oc1ccc(cc1)C[C@H]1c3cc(c(OC)cc3CCN1C)Oc1c(OC)c(OC)c(CN3CCN(CCO)CC3)c3c1[C@H](C2)N(C)CC3 [BS-TE-334] | 0.05 (≈ 0.0654 µM) | 1.11 (≈ 1.45 µM) | 0.84 (≈ 1.1 µM) | 2.44 (≈ 3.19 µM) | 3.99 (≈ 5.22 µM) | 11 (≈ 14.4 µM) | 2.35 (≈ 3.07 µM) | 21.5 (≈ 28.1 µM) | 3.35 (≈ 4.38 µM) | 6.05 (≈ 7.91 µM) | > 16 | > 16 | 1.88 (≈ 2.46 µM) | 7.85 (≈ 10.3 µM) | 1.06 (≈ 1.39 µM) | 3.64 (≈ 4.76 µM) | 1.49 (≈ 1.95 µM) | 5.99 (≈ 7.83 µM) | 1.3 (≈ 1.7 µM) | 2.4 (≈ 3.14 µM) | IC50 [9]: 0.82 µg/mL (≈ 1.07 µM); IC90 [9]: 2.04 µg/mL (≈ 2.67 µM); IC50 [10]: 2.55 µg/mL (≈ 3.33 µM); IC90 [10]: 4.38 µg/mL (≈ 5.73 µM); IC50 [11]: 3.09 µg/mL (≈ 4.04 µM); IC90 [11]: 8.39 µg/mL (≈ 11 µM); IC50 [12]: 2.22 µg/mL (≈ 2.9 µM); IC90 [12]: 10 µg/mL (≈ 13.1 µM); IC50 (A549 (human lung cancer)): 4 µg/mL (≈ 5.23 µM); IC90 (A549 (human lung cancer)): 14.6 µg/mL (≈ 19.1 µM) |
| COc1ccc2cc1Oc1ccc(cc1)C[C@H]1c3cc(c(OC)cc3CCN1C)Oc1c(OC)c(OC)c(CNCc3cccnc3)c3c1[C@H](C2)N(C)CC3 [BS-TE-348] | 0.09 (≈ 0.121 µM) | 1 (≈ 1.35 µM) | 1.52 (≈ 2.05 µM) | 4.06 (≈ 5.46 µM) | 4.55 (≈ 6.12 µM) | 13.9 (≈ 18.7 µM) | 2.3 (≈ 3.1 µM) | 14.5 (≈ 19.6 µM) | 4.44 (≈ 5.98 µM) | 8.36 (≈ 11.3 µM) | 1.14 (≈ 1.53 µM) | 4.78 (≈ 6.43 µM) | 1.82 (≈ 2.45 µM) | 9.94 (≈ 13.4 µM) | 1.96 (≈ 2.64 µM) | 7.37 (≈ 9.92 µM) | 1.45 (≈ 1.95 µM) | 5.7 (≈ 7.67 µM) | 1.33 (≈ 1.79 µM) | 2.97 (≈ 4 µM) | IC50 [9]: 1.77 µg/mL (≈ 2.38 µM); IC90 [9]: 3.83 µg/mL (≈ 5.16 µM); IC50 [10]: 3.05 µg/mL (≈ 4.11 µM); IC90 [10]: 8 µg/mL (≈ 10.8 µM); IC50 [11]: 3.84 µg/mL (≈ 5.17 µM); IC90 [11]: 13.6 µg/mL (≈ 18.3 µM); IC50 [12]: 1.93 µg/mL (≈ 2.6 µM); IC90 [12]: 5.53 µg/mL (≈ 7.44 µM); IC50 (A549 (human lung cancer)): 9.94 µg/mL (≈ 13.4 µM); IC90 (A549 (human lung cancer)): > 16 µg/mL |
| COc1ccc2cc1Oc1ccc(cc1)C[C@H]1c3cc(c(OC)cc3CCN1C)Oc1c(OC)c(OC)c(CN3CCC(O)CC3)c3c1[C@H](C2)N(C)CC3 [BS-TE-308] | 0.28 (≈ 0.38 µM) | 0.76 (≈ 1.03 µM) | 1.38 (≈ 1.88 µM) | 4.84 (≈ 6.58 µM) | 6.54 (≈ 8.89 µM) | 14.7 (≈ 19.9 µM) | 3.43 (≈ 4.66 µM) | 27.4 (≈ 37.3 µM) | 5.39 (≈ 7.32 µM) | 8.99 (≈ 12.2 µM) | 1.43 (≈ 1.94 µM) | 6.61 (≈ 8.98 µM) | 3.91 (≈ 5.31 µM) | 12.7 (≈ 17.3 µM) | 1.76 (≈ 2.39 µM) | 8.69 (≈ 11.8 µM) | 3.54 (≈ 4.81 µM) | 12.4 (≈ 16.8 µM) | 1.7 (≈ 2.31 µM) | 4.68 (≈ 6.36 µM) | IC50 [9]: 1.77 µg/mL (≈ 2.41 µM); IC90 [9]: 4.03 µg/mL (≈ 5.48 µM); IC50 [10]: 3.1 µg/mL (≈ 4.21 µM); IC90 [10]: 4.95 µg/mL (≈ 6.73 µM); IC50 [11]: 4.76 µg/mL (≈ 6.47 µM); IC90 [11]: 11.5 µg/mL (≈ 15.6 µM); IC50 [12]: 4.44 µg/mL (≈ 6.03 µM); IC90 [12]: 23 µg/mL (≈ 31.3 µM); IC50 (A549 (human lung cancer)): 2.79 µg/mL (≈ 3.79 µM); IC90 (A549 (human lung cancer)): 11.2 µg/mL (≈ 15.2 µM) |
| COc1ccc2cc1Oc1ccc(cc1)C[C@H]1c3cc(c(OC)cc3CCN1C)Oc1c(OC)c(OC)c(CN3CCCC3)c3c1[C@H](C2)N(C)CC3 [BS-TE-305] | 0.006 (≈ 0.0085 µM) | 0.42 (≈ 0.595 µM) | 0.74 (≈ 1.05 µM) | 2.05 (≈ 2.9 µM) | 3.72 (≈ 5.27 µM) | 13.4 (≈ 19 µM) | 1.1 (≈ 1.56 µM) | 17 (≈ 24 µM) | 1.56 (≈ 2.21 µM) | 4.9 (≈ 6.94 µM) | 0.29 (≈ 0.411 µM) | 2 (≈ 2.83 µM) | 1.35 (≈ 1.91 µM) | 4.96 (≈ 7.03 µM) | 0.52 (≈ 0.737 µM) | 3.11 (≈ 4.41 µM) | 0.44 (≈ 0.623 µM) | 7.2 (≈ 10.2 µM) | 0.7 (≈ 0.992 µM) | 1.44 (≈ 2.04 µM) | anti-PC-3 activity increase over tetrandrine (PC-3 (prostate cancer); compared with tetrandrine): ~4 fold; IC50 [9]: 0.66 µg/mL (≈ 0.935 µM); IC90 [9]: 1.65 µg/mL (≈ 2.34 µM); IC50 [10]: 1.28 µg/mL (≈ 1.81 µM); IC90 [10]: 2.3 µg/mL (≈ 3.26 µM); IC50 [11]: 1.44 µg/mL (≈ 2.04 µM); IC90 [11]: 6.24 µg/mL (≈ 8.84 µM); IC50 [12]: 1 µg/mL (≈ 1.42 µM); IC90 [12]: 10 µg/mL (≈ 14.2 µM); IC50 (A549 (human lung cancer)): 1 µg/mL (≈ 1.42 µM); IC90 (A549 (human lung cancer)): 5.25 µg/mL (≈ 7.44 µM); anti-A549 activity increase over tetrandrine (A549 (human lung cancer); compared with tetrandrine): ~3 fold |
